How the values were obtained:
MOLM14 AML xenografts = assay: luc-labeled MOLM14 AML cell line xenograft; format: in vivo, NRG mice; conditions: 15 mg/kg/d PO, 5 days on, 9 days off, 5 cycles
Description: (§1) Immunodeficient NOD-Rag1^nullIL2rg^null (NRG) mice were purchased from Jackson Laboratory (Bar Harbor, ME), bred and housed at the University of Maryland Baltimore. Similar to our previous publication ([20]). mice were transplanted IV with luc-labeled human AML cell lines or cryopreserved AML patient cells on day -10, and baseline total body luminescence was quantified on day 0 by Xenogen bioluminescence imaging (Xenogen IVIS Spectrum; PerkinElmer, Waltham, MA). Mice were allocated to treatment groups so that each group had similar average day 0 luminescence, then groups were administered drugs per oral (PO; gavage). Luminescence of each mouse was assessed over time and compared with that mouse’s day 0 luminescence (fold-change AML burden). Clinical behavior, appearance, weight, and survival were also monitored.
Using our previously determined 5-day MTD SAV drug schedule (i.e. 5-day treatment cycles consisting of 15 mg/kg/d ART631 combined with 150 mg/kg/d VEN and 30 mg/kg/d SOR, followed by 9 days off drug; schematic in Figure 7A ), we assessed treatment of established human luc-labeled MV4;11 ( Figures 7B–D ) and MOLM14 AML ( Figures 8A–C ) cell line xenografts with VEN plus SOR plus ART631 in NRG mice ( Figures 7B , 8A ). […]

TF1 = assay: alamarBlue growth inhibition, TF1; format: cell-based; conditions: Homo sapiens, TF-1, TF1, 48h, mean of 2 independent assays ± SD
Experimental: (§2) Cytotoxicity was assessed using alamarBlue assays (Life Technologies, Grand Island, NY) following manufacturer’s guidelines. Cell death was verified by Annexin V/7-aminoactinomycin D (7AAD) staining (BioLegend, San Diego, CA) per manufacturer’s guidelines.

K562 = assay: alamarBlue growth inhibition, K562; format: cell-based; conditions: Homo sapiens, K562, 48h, mean of 2 independent assays ± SD
Experimental: as §2

[1] = Stability in mouse plasma (EDTA); format: in vitro ADME; conditions: 10 µM, 37°C, 1h
Experimental: The metabolic stability of ART631 was assessed in human and mouse plasma and liver microsomes (LM). For phase I microsomal stability assays, analogs (10 µM in <1% acetonitrile) were incubated in PBS containing liver microsomes, with or without cofactors ([22]). Microsomal controls (without cofactors) were used to determine non-enzymatic degradation. All experiments were incubated at 37°C for 1h and performed in duplicate. Reactions were stopped with acetonitrile and analyzed as described below.
ART631 was extracted from 25 µL plasma or microsomal solutions with 100 µL acetonitrile containing artemisinin (i.e. the natural product) as internal standard. […] Mobile phase A was ammonium acetate (2mM) containing 0.1% formic acid, and mobile phase B was acetonitrile containing 0.1% formic acid. The gradient started with mobile phase B and was held at 40% for 0.5 minutes with a flow rate of 0.4 mL/min, then increased to 100% over 1.5 minutes and held for 2.0 minutes, and finally returned back to 40% mobile phase B and allowed to equilibrate for 2.0 minutes. An AB Sciex 5500 triple quadrupole mass spectrometer operated in positive electrospray ionization mode was used for the detection of ART631. For stability studies, the ratio of ART631 to the internal standard, artemisinin, was assessed. […]

AML45 PDX = assay: luc-labeled AML45 patient-derived xenograft; format: in vivo, NRG mice; conditions: ART631 monotherapy p=0.0029
Description: as §1
We then compared the efficacy of 15 mg/kg/d ART631 monotherapy, versus 150 mg/kg/d VEN plus 30 mg/kg/d SOR, versus ART631 combined with VEN plus SOR (i.e. SAV) at the previously indicated doses, using a luc-labeled AML45 PDX model ( Figure 9A ). […]
Figure 9 VEN plus SOR plus ART631 inhibited growth of an AML PDX. […] (A) After Xenogen quantification of baseline total body luminescence on day 0, mice were placed into balanced experimental groups prior to drug administration via gavage, then treated per our previously established MTD PO x 5 day schedule (5 days on, 9 days off). […]

THP1 = assay: alamarBlue growth inhibition, THP1; format: cell-based; conditions: Homo sapiens, THP-1, THP1, 48h, mean of 2 independent assays ± SD
Experimental: as §2

Structure (SMILES): C=CCO/N=C(/C[C@H]1O[C@@H]2O[C@@]3(C)CC[C@H]4[C@H](C)CC[C@@H]([C@H]1C)[C@@]24OO3)[C@H]1O[C@@H]2O[C@@]3(C)CC[C@H]4[C@H](C)CC[C@@H]([C@H]1C)[C@@]24OO3 [ART631]
- antileukemic activity of monotherapy (MOLM14 AML xenografts): no activity
- IC50 (TF1): 27 ± 2 nM
- IC50 (K562): > 1000 nM
- percentage remaining, Plasma (EDTA) Mouse [1]: 62%
- survival versus vehicle (AML45 PDX): statistically significant increase in survival
- IC50 (THP1): 42 ± 2 nM
